According to patent US8030300B2, “Ligands for nicotinic acetylcholine receptors, and methods of making and using them” (priority 2003, dated 2011):
Where two headings read alike, the source gives them in different places.

Assays:
Experiment in all cases: biochemical
Format in all cases: binding
α3β4 nAChR subtype = molecular target: T1, α3β4 nAChR subtype (Rattus norvegicus, UniProt P04757+P12392)
T1 construct: expressed in transfected cells
Text: (§1) In order to assess the steric and hydropathic effects of the C-5 substituents of the pyridine on the binding affinity and subtype-selectivity at neuronal nicotinic acetylcholine receptors. […] The binding affinity ratios for a ligand, calculated from its affinities at an α subunit paired with either the β2 osubunit or the β4 subunit, represents a measure of the selectivity of that ligand with regard to the β subunits.

α2β2 nAChR subtype = molecular target: T2, α2β2 nAChR subtype (Rattus norvegicus, UniProt P12389+P12390)
T2 construct: expressed in transfected cells
T2 sequence (P12390 25-500): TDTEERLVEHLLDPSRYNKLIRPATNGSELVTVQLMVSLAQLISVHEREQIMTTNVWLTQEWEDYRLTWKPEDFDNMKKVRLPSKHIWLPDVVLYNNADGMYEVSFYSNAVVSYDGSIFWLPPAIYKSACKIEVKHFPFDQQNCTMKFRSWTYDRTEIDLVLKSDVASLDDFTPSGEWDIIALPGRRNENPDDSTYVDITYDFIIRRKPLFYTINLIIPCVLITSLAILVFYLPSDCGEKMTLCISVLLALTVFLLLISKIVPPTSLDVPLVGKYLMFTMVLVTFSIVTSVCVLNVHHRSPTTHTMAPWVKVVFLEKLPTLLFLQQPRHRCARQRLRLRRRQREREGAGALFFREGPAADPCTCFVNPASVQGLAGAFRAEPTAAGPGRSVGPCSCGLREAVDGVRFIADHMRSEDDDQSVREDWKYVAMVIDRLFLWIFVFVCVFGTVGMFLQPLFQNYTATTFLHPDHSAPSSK
T2 sequence (P12389 28-511): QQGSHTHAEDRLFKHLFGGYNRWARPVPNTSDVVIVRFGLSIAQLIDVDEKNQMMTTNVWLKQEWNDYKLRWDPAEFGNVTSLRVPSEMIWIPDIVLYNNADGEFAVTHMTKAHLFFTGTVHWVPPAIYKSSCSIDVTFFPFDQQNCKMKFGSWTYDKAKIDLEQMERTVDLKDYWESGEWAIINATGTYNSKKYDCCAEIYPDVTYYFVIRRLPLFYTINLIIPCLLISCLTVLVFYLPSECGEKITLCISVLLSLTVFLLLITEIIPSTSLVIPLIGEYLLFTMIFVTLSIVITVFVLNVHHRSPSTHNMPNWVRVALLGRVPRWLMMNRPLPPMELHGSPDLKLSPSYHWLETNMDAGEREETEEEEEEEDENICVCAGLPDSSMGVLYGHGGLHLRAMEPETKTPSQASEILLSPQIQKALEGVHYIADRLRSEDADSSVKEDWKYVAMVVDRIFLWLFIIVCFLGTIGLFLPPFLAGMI
Text: as §1

α2β4 nAChR subtype = molecular target: T3, α2β4 nAChR subtype (Rattus norvegicus, UniProt P12389+P12392)
T3 construct: expressed in transfected cells
T3 sequence (P12389 28-511): as above
T3 sequence (P12392 21-495): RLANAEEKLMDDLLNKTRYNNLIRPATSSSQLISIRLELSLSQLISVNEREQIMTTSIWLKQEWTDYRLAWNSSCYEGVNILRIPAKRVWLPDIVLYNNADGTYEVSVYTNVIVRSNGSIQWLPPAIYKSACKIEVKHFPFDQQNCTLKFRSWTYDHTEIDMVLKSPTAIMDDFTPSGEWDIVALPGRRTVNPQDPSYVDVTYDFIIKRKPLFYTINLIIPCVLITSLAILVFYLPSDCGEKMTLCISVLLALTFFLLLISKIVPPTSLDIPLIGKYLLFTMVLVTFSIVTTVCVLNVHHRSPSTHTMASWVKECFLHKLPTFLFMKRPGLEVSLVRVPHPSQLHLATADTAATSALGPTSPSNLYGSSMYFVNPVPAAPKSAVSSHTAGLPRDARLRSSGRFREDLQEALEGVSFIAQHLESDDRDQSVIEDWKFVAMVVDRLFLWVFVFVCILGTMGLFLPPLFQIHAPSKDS
Text: as §1

α4β2 nAChR subtype = molecular target: T4, α4β2 nAChR subtype (Rattus norvegicus, UniProt P09483+P12390)
T4 construct: expressed in transfected cells
T4 sequence (P12390 25-500): as the sequence (P12390 25-500) above
T4 sequence (P09483 31-630): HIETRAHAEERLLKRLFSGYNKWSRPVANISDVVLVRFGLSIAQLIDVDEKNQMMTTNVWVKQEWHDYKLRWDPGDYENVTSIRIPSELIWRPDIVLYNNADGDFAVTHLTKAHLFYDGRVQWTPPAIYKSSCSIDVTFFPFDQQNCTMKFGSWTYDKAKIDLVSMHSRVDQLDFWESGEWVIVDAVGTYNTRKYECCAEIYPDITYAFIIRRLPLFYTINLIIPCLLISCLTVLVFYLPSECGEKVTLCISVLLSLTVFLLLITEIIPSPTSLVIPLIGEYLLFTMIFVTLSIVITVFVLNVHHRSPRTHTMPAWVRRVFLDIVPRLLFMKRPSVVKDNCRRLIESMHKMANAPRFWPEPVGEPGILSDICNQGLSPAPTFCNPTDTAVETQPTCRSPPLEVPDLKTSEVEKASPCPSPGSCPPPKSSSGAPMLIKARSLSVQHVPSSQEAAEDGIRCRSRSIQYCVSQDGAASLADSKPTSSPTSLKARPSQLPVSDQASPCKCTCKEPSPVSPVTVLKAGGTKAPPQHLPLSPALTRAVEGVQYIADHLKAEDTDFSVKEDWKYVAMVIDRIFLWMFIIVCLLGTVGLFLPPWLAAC
Text: as §1

α4β4 nAChR subtype = molecular target: T5, α4β4 nAChR subtype (Rattus norvegicus, UniProt P09483+P12392)
T5 construct: expressed in transfected cells
T5 sequence (P12392 21-495): as the sequence (P12392 21-495) above
T5 sequence (P09483 31-630): as the sequence (P09483 31-630) above
Text: as §1

α3β2 nAChR subtype = molecular target: T6, α3β2 nAChR subtype (Rattus norvegicus, UniProt P04757+P12390)
T6 construct: expressed in transfected cells
T6 sequence (P12390 25-500): as the sequence (P12390 25-500) above
T6 sequence (P04757 26-499): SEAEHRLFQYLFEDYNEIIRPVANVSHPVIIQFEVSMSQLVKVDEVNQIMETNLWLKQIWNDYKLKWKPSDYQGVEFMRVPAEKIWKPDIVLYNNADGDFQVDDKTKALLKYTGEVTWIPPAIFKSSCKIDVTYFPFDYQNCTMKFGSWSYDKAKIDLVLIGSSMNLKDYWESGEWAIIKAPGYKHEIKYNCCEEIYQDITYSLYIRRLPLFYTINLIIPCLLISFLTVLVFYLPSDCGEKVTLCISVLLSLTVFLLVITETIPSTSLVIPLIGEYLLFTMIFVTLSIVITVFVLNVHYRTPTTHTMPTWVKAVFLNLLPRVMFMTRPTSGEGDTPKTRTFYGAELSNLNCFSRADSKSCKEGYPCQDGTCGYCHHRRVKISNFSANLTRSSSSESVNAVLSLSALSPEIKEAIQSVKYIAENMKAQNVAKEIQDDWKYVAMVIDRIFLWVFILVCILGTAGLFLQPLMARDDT
Text: as §1

[1] = molecular target: T7, receptors in rat forebrain (mainly α4β2) (Rattus norvegicus, UniProt P09483+P12390)
T7 construct: from tissue; host or cells: rat forebrain homogenate
T7 sequence (P09483 31-630): as the sequence (P09483 31-630) above
T7 sequence (P12390 25-500): as the sequence (P12390 25-500) above
Text: as §1
In Vitro Inhibition of ^3H-Epibatidin Binding
The high affinity binding site for ^3H-epibatidin is most certainly binding to the α4β2 subtype of nicotinic receptors. The identity of the low affinity site is still believed to be unknown.
Tissue preparation: Preparations may be performed at 0-4° C. unless otherwise indicated. […] The tissue suspension may then be centrifuged at 27,000×g for 10 min. The supernatant is then discarded and the pellet may then be washed three times by centrifugation at 27,000×g for 10 min in 20 mL fresh buffer, and the final pellet may be resuspended in fresh buffer (400 mL per g of original tissue) and used for binding assays.
Assay: Aliquots of 2.0 mL homogenate may be added to 0.100 mL of test solution and 0.100 mL of ^3H-epibatidin (0.3 nM, final concentration), mixed and incubated for 60 min at room temperature. […] The amount of radioactivity on the filters may be determined by conventional liquid scintillation counting. Specific binding is total binding minus non-specific binding.

[2] = Ki α3β4, Table 5, rat nAChR subtypes
[3] = Ki α2β2, Table 5, rat nAChR subtypes
[4] = Ki α2β4, Table 5, rat nAChR subtypes
[5] = Ki α4β2, Table 5, rat nAChR subtypes
[6] = Ki α4β4, Table 5, rat nAChR subtypes
[7] = Ki α3β2, Table 5, rat nAChR subtypes
[8] = Ki α4β2*, Table 5, *Rat forebrain, mainly α4β2
[9] = Table 5, rat nAChR subtypes, read-out: Ki α3β4
[10] = Table 5, rat nAChR subtypes, read-out: Ki α2β2
[11] = Table 5, rat nAChR subtypes, read-out: Ki α2β4
[12] = Table 5, rat nAChR subtypes, read-out: Ki α4β2
[13] = Table 5, rat nAChR subtypes, read-out: Ki α4β4
[14] = Table 5, rat nAChR subtypes, read-out: Ki α3β2
[15] = Table 5, *Rat forebrain, mainly α4β2, read-out: Ki α4β2*

T1 sequence (P04757 26-499): as the sequence (P04757 26-499) above
T1 sequence (P12392 21-495): as the sequence (P12392 21-495) above

Compound | Ki (α3β4 nAChR subtype; [2]) [µM] | Ki (α2β2 nAChR subtype; [3]) [µM] | Ki (α2β4 nAChR subtype; [4]) [µM] | Ki (α4β2 nAChR subtype; [5]) [µM] | Ki (α4β4 nAChR subtype; [6]) [µM] | Ki (α3β2 nAChR subtype; [7]) [µM] | Ki [1, 8] [µM] | Ki (α3β4 nAChR subtype; [9]) [µM] | further results
O=C1CC2NC1CC2c1ccc(Cl)nc1 (stereo not drawn) [Ligand 4, 2-exo-(2-Chloro-5-pyridyl)-7-azabicyclo[2.2.1]heptan-5-one] | 4.43 | 0.642 | 1.14 | 7.08 | 3.24 | 1.89 | 4.57 |  | 
O=c1cccc2n1C[C@H]1C[C@@H]2CN(CCCOc2cccnc2)C1 [ZW-17] |  |  |  |  |  |  |  |  | Ki (α3β4 nAChR subtype): > 10 µM; Ki (α2β2 nAChR subtype): 2.98 µM; Ki (α2β4 nAChR subtype): 14 µM; Ki (α4β2 nAChR subtype): 3.11 µM; Ki (α4β4 nAChR subtype): 3.23 µM; Ki (α3β2 nAChR subtype): > 1 µM; Ki [1]: 4.55 µM
CCCCCC#Cc1ccc(C2CC3CCC2N3)cn1 (stereo not shown) [Ligand 34] | 0.0954 | 0.0169 | 0.0674 | 0.0677 | 0.0618 | 0.0198 | 0.052 |  | 
CN1CCC[C@H]1COc1cncc(C#CCO)c1 [Ligand 14] |  |  |  |  |  |  |  |  | Ki (α3β4 nAChR subtype; Ki α3β4, Table 1, mean of 3 (1, 2: 3 to 6) independent measurements): 18.2 µM; Ki (α2β2 nAChR subtype; Ki α2β2, Table 1, mean of 3 (1, 2: 3 to 6) independent measurements): 0.00243 µM; Ki (α2β4 nAChR subtype; Ki α2β4, Table 1, mean of 3 (1, 2: 3 to 6) independent measurements): 1.88 µM; Ki (α4β2 nAChR subtype; Ki α4β2, Table 1, mean of 3 (1, 2: 3 to 6) independent measurements): 0.000954 µM; Ki (α4β4 nAChR subtype; Ki α4β4, Table 1, mean of 3 (1, 2: 3 to 6) independent measurements): 1.69 µM; Ki (α3β2 nAChR subtype; Ki α3β2, Table 1, mean of 3 (1, 2: 3 to 6) independent measurements): 0.00764 µM; Ki ([1]; Ki Rat forebrain, Table 1, mean of 3 (1, 2: 3 to 6) independent measurements): 0.00316 µM
Clc1ccc(C2CC3CCC2N3CCCN2C3CCC2C(c2ccc(Cl)nc2)C3)cn1 (stereo not shown) [Ligand 59b, Propane-1,3-N,N′-bisepibatidine] |  |  |  |  |  |  |  | 0.0629 | Ki (α2β2 nAChR subtype; [10]): 0.00608 µM; Ki (α2β4 nAChR subtype; [11]): 0.0157 µM; Ki (α4β2 nAChR subtype; [12]): 0.00866 µM; Ki (α4β4 nAChR subtype; [13]): 0.0233 µM; Ki (α3β2 nAChR subtype; [14]): 0.00517 µM; Ki [1, 15]: 0.0101 µM
COC(=O)c1nc(Cl)ccc1C1CC2CCC1N2 (stereo not shown) [ZW-96] | 10.7 | 5.41 | 28.1 | 7.87 | 46.5 | 5.51 | 18.4 |  | 
Decane-1,3-N,N′-bisepibatidine [Ligand 59d] |  |  |  |  |  |  |  | 0.0677 | Ki (α2β2 nAChR subtype; [10]): 0.00578 µM; Ki (α2β4 nAChR subtype; [11]): 0.0242 µM; Ki (α4β2 nAChR subtype; [12]): 0.0103 µM; Ki (α4β4 nAChR subtype; [13]): 0.0187 µM; Ki (α3β2 nAChR subtype; [14]): 0.00675 µM; Ki [1, 15]: 0.0139 µM
O=c1cccc2n1C[C@@H]1CNC[C@H]2C1 [Cytisine, reference compound] |  |  |  |  |  |  |  | 0.21 | Ki (α2β2 nAChR subtype): 0.000571 µM; Ki (α2β4 nAChR subtype): 0.00351 µM; Ki (α4β2 nAChR subtype): 0.00135 µM; Ki (α4β4 nAChR subtype): 0.00152 µM; Ki (α3β2 nAChR subtype): 0.00806 µM; Ki [1]: 0.00257 µM
Clc1ccc(C2CC3CC4(OCCO4)C2N3)cn1 (stereo not shown) [ZW-82] | 0.173 | 0.03 | 0.0938 | 0.0573 | 0.0531 | 0.147 | 0.304 |  | 
Hexane-1,3-N,N′-bisepibatidine [Ligand 59c] |  |  |  |  |  |  |  | 0.0647 | Ki (α2β2 nAChR subtype; [10]): 0.00412 µM; Ki (α2β4 nAChR subtype; [11]): 0.0374 µM; Ki (α4β2 nAChR subtype; [12]): 0.0072 µM; Ki (α4β4 nAChR subtype; [13]): 0.0319 µM; Ki (α3β2 nAChR subtype; [14]): 0.00661 µM; Ki [1, 15]: 0.0142 µM
FC1CC2CC(c3ccc(Cl)nc3)C1N2 (stereo not drawn) [Ligand 11, 2-exo-(2-Chloro-5-pyridyl)-6-fluoro-7-azabicyclo[2.2.1]heptane] | 0.00248 | 0.000218 | 0.000481 | 0.000328 | 0.000172 | 0.000149 | 0.000668 |  | 
FC1CC2NC1CC2c1ccc(Cl)nc1 (stereo not drawn) [Ligand 10, 2-exo-(2-Chloro-5-pyridyl)-5-exo-fluoro-7-azabicyclo[2.2.1]heptane] | 0.0104 | 0.000864 | 0.00559 | 0.00173 | 0.00123 | 0.000646 | 0.00211 |  | 
O=C1CC2CC(c3ccc(Cl)nc3)C1N2 (stereo not drawn) [Ligand 5, 2-exo-(2-Chloro-5-pyridyl)-7-azabicyclo[2.2.1]heptan-6-one] | 8.87 | 1.01 | 3.24 | 2.02 | 3.56 | 1.5 | 1.35 |  | 
